One may read the IC50 as the concentration at which inhibition is half-maximal.

Each structure is given as a SMILES string. Bounds are passed on as bounds.

The subject of one experiment is MV-4-11 cells. The experiment can be described thus: Cell Viability Assay in MV-4-11 Cells. Format: cell-based. The note with it: Homo sapiens, MV4-11, 72 h. Put shortly:
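Luminescent ATP read-out (CellTiter-Glo) after 72 h compound treatment of MV-4-11 leukaemia cells (7,000 per well, IMDM plus 10% FBS). Values expressed relative to DMSO control and derived by four-parameter non-linear regression.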
In turn, `Cn1nnc(-c2ccc(C(=O)N(c3nccc4cc(-c5cn[nH]c5)ccc34)[C@@H]3CCCNC3)cc2)n1` [Example 395, (R)—N-(6-(1H-pyrazol-4-yl)isoquinolin-1-yl)-4-(2-methyl-2H-tetrazol-5-yl)-N-(piperidin-3-yl)benzamide] gave a concentration for half-maximal inhibition (IC50) of 230 nM.
Same read-out and setting: the same measure for `O=C(c1ccc(-n2nnc3cccnc32)cc1F)N(c1nccc2cc(C#CCO)ccc12)[C@@H]1CCCNC1` [Example 398, (R)-4-(3H-[1,2,3]triazolo[4,5-b]pyridin-3-yl)-2-fluoro-N-(6-(3-hydroxyprop-1-yn-1-yl)isoquinolin-1-yl)-N-(piperidin-3-yl)benzamide]: 71 nM.

Staying with this experiment, now noted: Homo sapiens, MV4-11, 72 h, MV-4-11 cells, 72 h, Cell-Titer Glo; read-out: IC50.
Take `Cc1cccc2ccnc(N(C(=O)c3ccc(-c4cn(C)nc4N)cc3F)[C@@H]3CCCNC3)c12` [Example 391, 4-(3-amino-1-methyl-pyrazol-4-yl)-2-fluoro-N-(8-methyl-1-isoquinolyl)-N-[(3R)-3-piperidyl] benzamide]: the IC50 was more than 10000 nM.
For `Cc1nn(C)c(-c2ccc(C(=O)N(c3nccc4cccc(C)c34)[C@@H]3CCCNC3)c(F)c2)c1N` [Example 392, 4-(4-amino-2,5-dimethyl-pyrazol-3-yl)-2-fluoro-N-(8-methyl-1-isoquinolyl)-N-[(3R)-3-piperidyl]benzamide], the IC50 amounted to 840 nM.
The same measure, in the same setting: the same measure for `Cc1cn(-c2ccc(C(=O)N(c3nccc4cccc(Cl)c34)[C@@H]3CCCNC3)c(F)c2)nn1` [Example 393, (R)—N-(8-chloroisoquinolin-1-yl)-2-fluoro-4-(4-methyl-1H-1,2,3-triazol-1-yl)-N-(piperidin-3-yl)benzamide]: 150 nM.
As to `Cc1nnc(-c2ccc(C(=O)N(c3nccc4cccc(C)c34)[C@@H]3CCCNC3)c(F)c2)o1` [Example 394, (R)-2-fluoro-4-(5-methyl-1,3,4-oxadiazol-2-yl)-N-(8-methylisoquinolin-1-yl)-N-(piperidin-3-yl)benzamide], the 50% inhibitory concentration (IC50) was found to be 140 nM.
`C#Cc1ccc2c(N(C(=O)c3ccc(-n4nnc5cccnc54)cc3F)[C@@H]3CCCNC3)nccc2c1` [Example 396, (R)-4-(3H-[1,2,3]triazolo[4,5-b]pyridin-3-yl)-N-(6-ethynylisoquinolin-1-yl)-2-fluoro-N-(piperidin-3-yl)benzamide]: the concentration for half-maximal inhibition (IC50) was 150 nM.
`O=C(c1ccc(Nc2ncccn2)cc1F)N(c1nccc2cc(-c3cccnc3)ccc12)[C@@H]1CCCNC1` [Example 397, (R)-2-fluoro-N-(piperidin-3-yl)-N-(6-(pyridin-3-yl)isoquinolin-1-yl)-4-(pyrimidin-2-ylamino)benzamide]: the 50% inhibitory concentration (IC50) was 460 nM.
With `C=CC(=O)NC1CCCN(C(=O)N(c2nccc3cccc(C)c23)[C@@H]2CCCNC2)C1` (stereo partly drawn) [Example 399, 3-acrylamido-N-(8-methylisoquinolin-1-yl)-N—((R)-piperidin-3-yl)piperidine-1-carboxamide], the IC50 amounted to 1100 nM.
Take `COC(=O)c1ccnc(Nc2ccc(C(=O)N(c3nccc4cccc(C)c34)[C@@H]3CCCNC3)c(F)c2)n1` [Example 400, methyl (R)-2-((3-fluoro-4-((8-methylisoquinolin-1-yl)(piperidin-3-yl)carbamoyl)phenyl)amino)pyrimidine-4-carboxylate]: the IC50 came to 2400 nM.
The same measure, in the same setting: in the case of `Cc1cccc2ccnc(N(C(=O)c3ccc(Nc4nccc(C(=O)O)n4)cc3F)[C@@H]3CCCNC3)c12` [Example 401, (R)-2-((3-fluoro-4-((8-methylisoquinolin-1-yl)(piperidin-3-yl)carbamoyl)phenyl)amino)pyrimidine-4-carboxylic acid] it was more than 10000 nM; in that of `Cc1cccc2ccnc(N(C(=O)c3ccc(Nc4nccc(C(N)=O)n4)cc3F)[C@@H]3CCCNC3)c12` [Example 402, (R)-2-((3-fluoro-4-((8-methylisoquinolin-1-yl)(piperidin-3-yl)carbamoyl)phenyl)amino)pyrimidine-4-carboxamide], 290 nM; in that of `Cn1cc(-c2ccc(C(=O)N(c3nccc4cccc(CCc5cccnc5)c34)[C@@H]3CCCNC3)cc2)nn1` [Example 403, 4-(1-methyltriazol-4-yl)-N-[(3R)-3-piperidyl]-N-[8-[2-(3-pyridyl)ethyl]-1-isoquinolyl]benzamide], 2100 nM.
In the case of `Cn1cc(-c2ccc(C(=O)N(c3nccc4cc(-c5nnn[nH]5)ccc34)[C@@H]3CCCNC3)c(F)c2)nn1` [Example 405, (R)—N-(6-(1H-tetrazol-5-yl)isoquinolin-1-yl)-2-fluoro-4-(1-methyl-1H-1,2,3-triazol-4-yl)-N-(piperidin-3-yl)benzamide], the IC50 worked out at 7800 nM.
Same read-out and setting: the same measure for `O=C(O)/C=C/c1ccc2c(N(C(=O)c3ccc(-n4nnc5cccnc54)cc3F)[C@@H]3CCCNC3)nccc2c1` [Example 406, (R,E)-3-(1-(4-(3H-[1,2,3]triazolo[4,5-b]pyridin-3-yl)-2-fluoro-N-(piperidin-3-yl)benzamido)isoquinolin-6-yl)acrylic acid]: more than 10000 nM; for `O=C(O)CCc1ccc2c(N(C(=O)c3ccc(-n4nnc5cccnc54)cc3F)[C@@H]3CCCNC3)nccc2c1` [Example 407]: more than 10000 nM.
Regarding `Cc1cccc2ccnc(N(C(=O)c3ccc(Nc4nccc(N5CCOCC5)n4)cc3F)[C@@H]3CCCNC3)c12` [Example 408, (R)-2-fluoro-N-(8-methylisoquinolin-1-yl)-4-((4-morpholinopyrimidin-2-yl)amino)-N-(piperidin-3-yl)benzamide], the IC50 came to 5.3 nM.
The same measure, in the same setting: in the case of `Cc1cccc2ccnc(N(C(=O)c3ccc(Nc4ncc(F)cn4)cc3F)[C@@H]3CCCNC3)c12` [Example 409, (R)-2-fluoro-4-((5-fluoropyrimidin-2-yl)amino)-N-(8-methylisoquinolin-1-yl)-N-(piperidin-3-yl)benzamide] it was 54 nM; in that of `Cc1cccc2ccnc(N(C(=O)c3ccc(Nc4ncc(N)cn4)cc3F)[C@@H]3CCCNC3)c12` [Example 410, (R)-4-((5-aminopyrimidin-2-yl)amino)-2-fluoro-N-(8-methylisoquinolin-1-yl)-N-(piperidin-3-yl)benzamide], 190 nM.
`O=C(c1ccc(-n2nnc3cccnc32)cc1F)N(c1nccc2sc(C#Cc3ccncc3)cc12)[C@@H]1CCCNC1` [Example 411, 2-fluoro-N-[(3R)-3-piperidyl]-N-[2-[2-(4-pyridyl)ethynyl]thieno[3,2-c]pyridin-4-yl]-4-(triazolo[4,5-b]pyridin-3-yl)benzamide]: the IC50 was 390 nM.
With `Nc1ccc(-c2cc3c(N(C(=O)c4ccc(-n5nnc6cccnc65)cc4F)[C@@H]4CCCNC4)nccc3s2)cc1` [Example 412, N-[2-(4-aminophenyl)thieno[3,2-c]pyridin-4-yl]-2-fluoro-N-[(3R)-3-piperidyl]-4-(triazolo[4,5-b]pyridin-3-yl)benzamide], the IC50 came to 63 nM.
With `NS(=O)(=O)c1ccc(-c2cc3c(N(C(=O)c4ccc(-n5nnc6cccnc65)cc4F)[C@@H]4CCCNC4)nccc3s2)cc1` [Example 414, 2-fluoro-N-[(3R)-3-piperidyl]-N-[2-(4-sulfamoylphenyl)thieno[3,2-c]pyridin-4-yl]-4-(triazolo[4,5-b]pyridin-3-yl)benzamide], the half-inhibitory concentration (IC50) stood at 220 nM.
On to `CC(C)Cn1cc(-c2cc3c(N(C(=O)c4ccc(-n5nnc6cccnc65)cc4F)[C@@H]4CCCNC4)nccc3s2)nn1` [Example 415, 2-fluoro-N-[2-(1-isobutyltriazol-4-yl)thieno[3,2-c]pyridin-4-yl]-N-[(3R)-3-piperidyl]-4-(triazolo[4,5-b]pyridin-3-yl)benzamide], for which the IC50 worked out at 1200 nM.
